We go through 18 compounds from paper PMC10603954, “Bacterial Tyrosinase Inhibition, Hemolytic and Thrombolytic Screening, and In Silico Modeling of Rationally Designed Tosyl Piperazine-Engrafted Dithiocarbamate Derivatives” (Biomedicines, 2023).

For data set [1], the target named is bacterial tyrosinase (Bacillus subtilis NA2). Details: method as in PMID 36142889. The following applies: reference standard; read-out: IC50 (µM) Tyrosinase Inhibition; cited from earlier work.
Data set [2] has the same target. Kind of data set: Tyrosinase inhibition, spectrophotometric L-Dopa assay. The class given is biochemical. The following applies: for IC50: bacterial tyrosinase, L-Dopa substrate, PBS pH 6.8; for optical density at varied incubation times: incubation 10, 20 and 30 min (Figure 6).
Description: IC50 values were obtained using a spectrophotometer assay. The protocol involved the addition of 2 mL of 1/2 mM L-Dopa in a 67.0 mM PBS (phosphate buffer saline) solution of pH 6.8 to the 800 µL solution of target molecules in DMSO. A total of 0.1 mL of the enzyme solution (tyrosinase) was dissolved in this mixture, and the starting rate of linear increase was measured in the optical density after 10, 20, and 30 min of incubation time, respectively. Thus, optical density increases or decreases with the presence of dopachrome.
The inhibition potential of these derivatives was also studied at varied incubation times.
Another data set can be described thus: Hemolytic activity. It is filed as cell-based, albino mice. Particulars: albino, mouse, red blood cells (RBC pellet from blood), pH 7.4; 20 µL sample (10 mg/mL) with 180 µL RBC, 37 °C, half an hour.
In the next data set the test system is clot. As to the kind of experiment: Thrombolytic activity (clot lysis). On the set-up: species or system albino mice. The following applies: 100 µL sample in DMSO, 37 °C, 3 h.
A further data set addresses Tyrosinase. The following applies: Figure 3; no reference given; read-out: Tyrosinase inhibtors IC50; cited from earlier work.

Where two headings read alike, the source gives them in different places.

Description for Hemolytic activity: A blood sample of 5 mL of volume from albino mice was taken and subjected to centrifugation at 1000 rpm for 5 min. RBC pellets were secluded and splashed 3–4 times using chilled buffer solutions that had pH values of 7.4, such as the phosphate buffer saline (PBS). A solution sample in a volume of 20 µL (10 mg/mL) was taken and added to a 180 µL RBC pellet. […] A sample tube was taken from the incubator and lowered to room temperature in an ice bath for 5 min. The sample was again centrifuged at 13,000 rpm for 5 min. A total of 100 µL of supernatant was collected from each tube and diluted with the ice-cold phosphate buffered saline.
Excerpt for clot: Blood samples were collected from albino mice and relocated to numerous cleaned and weighed-up eppendorf tubes. […] Blood serum was cast-off from these tubes and weighed in the eppendorf tubes to calculate the preliminary weight of the clot (clot weight = weight of the eppendorf with the clot minus the weight of the empty eppendorf). […] In this methodology, ABTS was used as a positive control, while water was used as a negative control. Serum was again removed and weighed in the eppendorf tubes to measure clot lysis.

In general, IC50 refers to the concentration that gives 50% inhibition. Take `O=C1O[C@H]([C@@H](O)CO)C(O)=C1O` [Ascorbic Acid]: the IC50 in data set [1] was 11.5 ± 1 µM.
Consider `O=c1cc(CO)occ1O` [Kojic Acid, Kojic acid, reference compound], for which 30.3 ± 0.75 µM corresponded to half-maximal inhibition in data set [2] (IC50).
The term melting point denotes the temperature of the solid-liquid transition. Compound `COc1ccc(OC)c(NC(=O)CSC(=S)N2CCN(S(=O)(=O)c3ccc(C)cc3)CC2)c1` [Compound 4h, 2-((2,5-Dimethoxyphenyl)amino)-2-oxoethyl 4-tosylpiperazine-1-carbodithioate] returned a melting point of 190 °C. For the same compound, in data set [2], the IC50 was 13.25 ± 0.11 µM and the “optical density at varied incubation times” value (“optical density” for short) is “linear decrease in optical density”. Moreover, the hemolysis at 0.5 h, 1 mg/mL in “Hemolytic activity” stood at 11.3 ± 0.22%. Besides, the “% Thrombolysis” value in the data set with clot was determined as 60.83 ± 0.14%.
Turning to `O=C(c1ccccc1)N1CCN(Cc2ccc(F)cc2)CC1` [Compound 2d], at Tyrosinase, the half-inhibitory concentration (IC50) is 13.3 µM.
In turn, `COc1ccc(NC(=O)CSC(=S)N2CCN(S(=O)(=O)c3ccc(C)cc3)CC2)cc1` [Compound 4d, 2-((4-Methoxyphenyl)amino)-2-oxoethyl 4-tosylpiperazine-1-carbodithioate] showed a melting point of 175 °C. In data set [2], the half-maximal inhibitory concentration (IC50) came to 6.88 ± 0.11 µM. Besides, the hemolysis at 0.5 h, 1 mg/mL in “Hemolytic activity” turned out to be 15.6 ± 0.5%. Besides, the “% Thrombolysis” value in the data set with clot stood at 52.4 ± 0.2%.
In data set [2], `Cc1ccc(S(=O)(=O)N2CCN(C(=S)SCC(=O)Nc3ccccc3F)CC2)cc1` [Compound 4c, 2-((2-Fluorophenyl)amino)-2-oxoethyl 4-tosylpiperazine-1-carbodithioate] had a half-maximal inhibitory concentration (IC50) of 8.1 ± 0.3 µM. The hemolysis at 0.5 h, 1 mg/mL in “Hemolytic activity” was determined as 6.6 ± 0.37%. In the data set on clot, the “% Thrombolysis” value is reported as 56.76 ± 0.15%.
In turn, `Cc1ccc(S(=O)(=O)N2CCN(C(=S)SCC(=O)Nc3ccccc3Cl)CC2)cc1` [Compound 4b, 2-((2-Chlorophenyl)amino)-2-oxoethyl 4-tosylpiperazine-1-carbodithioate] registered a melting point of 180 °C. Moreover, in data set [2], the IC50 was found to be 8.01 ± 0.11 µM and the “optical density” value is reported as “highest optical density”. The same compound yielded a hemolysis at 0.5 h, 1 mg/mL in “Hemolytic activity” of 0.29 ± 0.01%. Also, the “% Thrombolysis” value with clot turned out to be 54.43 ± 0.23%.
For the compound `O=C(c1cccc(Cl)c1[N+](=O)[O-])N1CCN(Cc2ccc(F)cc2)CC1` [Compound 2e], the 50% inhibitory concentration (IC50) on Tyrosinase is 0.18 µM.
As for `Cc1ccc(S(=O)(=O)N2CCN(C(=S)SCC(=O)Nc3ccc(Cl)cc3)CC2)cc1` [Compound 4e, 2-((4-Chlorophenyl)amino)-2-oxoethyl 4-tosylpiperazine-1-carbodithioate], in data set [2], the IC50 is 11.1 ± 0.4 µM. This compound also yielded a hemolysis at 0.5 h, 1 mg/mL in the data set “Hemolytic activity” of 7.5 ± 0.4%. The “% Thrombolysis” value in the data set with clot came to 67.3 ± 0.2%.
Take `COc1cccc(/C=C/C(=O)N2CCN(c3ccc(F)c(Cl)c3)CC2)c1Cl` [Compound 2h]: the IC50 at Tyrosinase was 0.12 µM.
Consider `Cc1ccc(S(=O)(=O)N2CCN(C(=S)SCC(=O)Nc3ccc(C)c(C)c3)CC2)cc1` [Compound 4j, 2-((3,4-Dimethylphenyl)amino)-2-oxoethyl 4-tosylpiperazine-1-carbodithioate], for which, in data set [2], half-maximal inhibition (IC50) required 11.11 ± 0.1 µM and the “optical density” value is reported as “linear decrease in optical density”. The compound also came in with a hemolysis at 0.5 h, 1 mg/mL in “Hemolytic activity” of 2.56 ± 0.3%. In the data set with clot, the “% Thrombolysis” value came to 56.6 ± 0.23%.
With `O=S(=O)(c1ccc(CN2CCN(c3ccccc3)CC2)cc1)N1CCCCC1` [Compound 2f], the concentration for half-maximal inhibition (IC50) on Tyrosinase was 0.06 µM.
For `Cc1ccc(S(=O)(=O)N2CCN(C(=S)SCC(=O)Nc3ccc(F)cc3)CC2)cc1` [Compound 4f, 2-((4-Fluorophenyl)amino)-2-oxoethyl 4-tosylpiperazine-1-carbodithioate], half-maximal inhibition in data set [2] (IC50) required 10.3 ± 0.26 µM. The hemolysis at 0.5 h, 1 mg/mL in the data set “Hemolytic activity” came out at 4.53 ± 0.35%. Moreover, the “% Thrombolysis” value in the data set with clot was found to be 56.53 ± 0.55%.
Take `CCn1c(=NN=c2sc3cc(S(=O)(=O)O)ccc3n2CC)sc2cc(S(=O)(=O)O)ccc21` [ABTS, 2,2′-azino-bis(3-ethylbenzothiazoline-6-sulfonic acid), reference compound]: the “% Thrombolysis” value in the data set with clot is given as 80%.
In the case of `Cc1ccc(NC(=O)CCCN2CCN(C/C=C/c3ccccc3)CC2)c(C)c1` [Compound 2g], the IC50 on Tyrosinase was 0.01 µM.
For the compound `Cc1ccc(S(=O)(=O)N2CCN(C(=S)SCC(=O)Nc3ccc(C)cc3C)CC2)cc1` [Compound 4g, 2-((2,4-Dimethylphenyl)amino)-2-oxoethyl 4-tosylpiperazine-1-carbodithioate], the melting point came out at 185 °C. Further, in data set [2], inhibition was half-maximal at 7.24 ± 0.15 µM (IC50) and the “optical density” value was “linear decrease in optical density”. Moreover, in the data set “Hemolytic activity”, the hemolysis at 0.5 h, 1 mg/mL came out at 1.53 ± 0.35%. Also, the “% Thrombolysis” value in the data set with clot was 55.26 ± 0.15%.
On to `Cc1ccc(S(=O)(=O)N2CCN(C(=S)SCC(=O)Nc3ccc(Cl)c(Cl)c3)CC2)cc1` [Compound 4i, 2-((3,4-Dichlorophenyl)amino)-2-oxoethyl 4-tosylpiperazine-1-carbodithioate], for which, in data set [2], 19.2 ± 0.47 µM corresponded to half-maximal inhibition (IC50) and the “optical density” value was “linear decrease in optical density”. The compound further showed a hemolysis at 0.5 h, 1 mg/mL in the data set “Hemolytic activity” of 12.8 ± 0.35%. Moreover, in the data set on clot, the “% Thrombolysis” value stood at 54.38 ± 0.53%.
On to `Cc1ccc(S(=O)(=O)N2CCN(C(=S)SCC(=O)Nc3ccccc3)CC2)cc1` [Compound 4a, 2-Oxo-2-(phenylamino)ethyl 4-tosylpiperazine-1-carbodithioate], for which, in data set [2], the concentration for half-maximal inhibition (IC50) came out at 34.8 ± 0.99 µM and the “optical density” value is given as “linear decrease in optical density”. Further, the hemolysis at 0.5 h, 1 mg/mL in “Hemolytic activity” was 0.55 ± 0.03%. The “% Thrombolysis” value in the data set with clot worked out at 62.3 ± 0.41%.
